# Results as given in patent publication US20250221988A1 (Cullgen (Shanghai), Inc., priority 2022, published 2025).
# Like-named read-outs stand apart in the source and are kept apart here.
# Legend:
# [1] = tested on: MV4;11 cells; test: Cell viability assay (CellTiter-Glo) in MV4;11 cells; type: cell-based; conditions: read-out: MV4
# How it was run: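 After three days' exposure to 3-fold serial compound dilutions (8 or 12 points), viability of cells seeded at 5000/well is read by CellTiter-Glo. Runs were done alone or combined with gilteritinib at 10 nM (MV4;11) or 20 nM (MOLM-13); IC50 from nonlinear regression.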
# [2] = tested on: MOLM-13 cells; test: Cell viability assay (CellTiter-Glo) in MOLM-13 cells; type: cell-based
# [3] = Homo sapiens, MV4-11, 72 h, MV4;11 cells, compound alone, three days, 11 IC50
# [4] = MV4;11 cells, with 10 nM gilteritinib, three days, 11 IC50 (nM) + 10 nM Gil
# [5] = Homo sapiens, 72 h, MOLM-13 cells, compound alone, three days, read-out: MOLM-13 IC50
# [6] = MOLM-13 cells, with gilteritinib, three days, read-out: MOLM-13 IC50 (nM) + 10 nM Gil
Structure (SMILES),"IC50 [1, 3]","IC50 [1, 4]","IC50 [2, 5]","IC50 [2, 6]","IC50 ([1]; Homo sapiens, MV4-11, 72 h, 11 IC50 (nM))","IC50 ([2]; Homo sapiens, MOLM-13, 72 h, read-out: MOLM-13 IC50 (nM))","IC50 ([2]; read-out: MOLM-13 IC50 (nM) + 10 nM Gil, MOLM-13 cells, with gilteritinib, three days)"
"O=C1CCC(N2C(=O)c3ccc(NC[C@H]4C[C@H](n5cc(-c6cnc7ccc(N8CC(O)C8)cc7n6)c(C6CC6)n5)C4)cc3C2=O)C(=O)N1 (stereo partly drawn) [GS-644, 5-(((Trans-3-(3-cyclopropyl-4-(7-(3-hydroxyazetidin-1-yl)quinoxalin-2-yl)-1H-pyrazol-1-yl)cyclobutyl)methyl)amino)-2-(2,6-dioxopiperidin-3-yl)isoindoline-1,3-dione]",10 to 100 nM,< 10 nM,10 to 100 nM,< 10 nM,–,–,–
"O=C1CCC(N2C(=O)c3ccc(NCC4CC(n5cc(-c6cnc7c(NCC(O)CO)cccc7n6)c(C6CC6)n5)C4)cc3C2=O)C(=O)N1 (stereo not drawn) [GS-702, 5-(((trans-3-(3-cyclopropyl-4-(5-((2,3-dihydroxypropyl)amino)quinoxalin-2-yl)-1-pyrazol-1-yl)cyclobutyl)methyl)amino)-2-(2,6-dioxopiperidin-3-yl)isoindoline-1,3-dione]",< 10 nM,< 10 nM,< 10 nM,< 10 nM,–,–,–
"Cc1nc(-c2cn([C@H]3C[C@H](CCc4ccc5c(c4)CN(C4CCC(=O)NC4=O)C5=O)C3)nc2C2CC2)ccc1F (stereo partly drawn) [GS-753, 3-(5-(2-(Trans-3-(3-cyclopropyl-4-(5-fluoro-6-methylpyridin-2-yl)-1H-pyrazol-1-yl)cyclobutyl)ethyl)-1-oxoisoindolin-2-yl)piperidine-2,6-dione]",10 to 100 nM,< 10 nM,100 to 1000 nM,10 to 100 nM,–,–,–
"O=C1CCC(N2C(=O)c3ccc(NC[C@H]4C[C@H](n5cc(Nc6ccncc6)c(C6CC6)n5)C4)cc3C2=O)C(=O)N1 (stereo partly drawn) [GS-671, 5-(((Trans-3-(3-cyclopropyl-4-(pyridin-4-ylamino)-1H-pyrazol-1-yl)cyclobutyl)methyl)amino)-2-(2,6-dioxopiperidin-3-y)isoindoline-1,3-dione]",–,–,–,–,> 1000 nM,> 1000 nM,100 to 1000 nM
"Cc1nc(-c2cn(C[C@H]3C[C@H](Nc4ccc5c(c4)C(=O)N(C4CCC(=O)NC4=O)C5=O)C3)nc2C2CC2)ccc1F (stereo partly drawn) [GS-711, 5-((Trans-3-((3-cyclopropyl-4-(5-fluoro-6-methylpyridin-2-yl)-1H-pyrazol-1-yl)methyl)cyclobutyl)amino)-2-(2,6-dioxopiperidin-3-yl)isoindoline-1,3-dione]",> 1000 nM,–,> 1000 nM,–,–,–,–
"NC1CCN(c2ccc3ncc(-c4cn([C@H]5C[C@H](CNc6ccc7c(c6)C(=O)N(C6CCC(=O)NC6=O)C7=O)C5)nc4C4CC4)nc3c2)C1 (stereo partly drawn) [GS-706, 5-(((Trans-3-(4-(7-(3-aminopyrrolidin-1-yl)quinoxalin-2-yl)-3-cyclopropyl-1H-pyrazol-1-yl)cyclobutyl)methyl)amino)-2-(2,6-dioxopiperidin-3-yl)isoindoline-1,3-dione]",10 to 100 nM,< 10 nM,10 to 100 nM,< 10 nM,–,–,–
O=C1CCC(N2C(=O)c3ccc(NC[C@H]4C[C@H](n5cc(-c6cc7c(cn6)cnn7[C@H]6CC[C@@H](O)CC6)c(C6CC6)n5)C4)cc3C2=O)C(=O)N1 (stereo partly drawn) [GS-782],< 10 nM,< 10 nM,10 to 100 nM,< 10 nM,–,–,–
"CN1CC(n2cc3cnc(-c4cn([C@H]5C[C@H](CNc6ccc7c(c6)C(=O)N(C6CCC(=O)NC6=O)C7=O)C5)nc4C4CC4)cc3n2)C1 (stereo partly drawn) [GS-680, 5-(((Trans-3-(3-cyclopropyl-4-(2-(1-methylazetidin-3-yl)-2H-pyrazolo[4,3-c]pyridin-6-yl)-1H-pyrazol-1-yl)cyclobutyl)methyl)amino)-2-(2,6-dioxopiperidin-3-yl)isoindoline-1,3-dione]",< 10 nM,< 10 nM,10 to 100 nM,< 10 nM,–,–,–

# Second part, led by results:
"IC50 [1, 3]","IC50 [1, 4]","IC50 [2, 5]","IC50 [2, 6]",Structure (SMILES),"IC50 ([1]; Homo sapiens, MV4-11, 72 h, 11 IC50 (nM))","IC50 ([2]; Homo sapiens, MOLM-13, 72 h, read-out: MOLM-13 IC50 (nM))","IC50 ([2]; read-out: MOLM-13 IC50 (nM) + 10 nM Gil, MOLM-13 cells, with gilteritinib, three days)"
10 to 100 nM,10 to 100 nM,100 to 1000 nM,10 to 100 nM,"CN(C)c1ccccc1-c1cn([C@H]2C[C@H](CNc3ccc4c(c3)C(=O)N(C3CCC(=O)NC3=O)C4=O)C2)nc1C1CC1 (stereo partly drawn) [GS-650, 5-(((trans-3-(3-Cyclopropyl-4-(2-(dimethylamino)phenyl)-1H-pyrazol-1-yl)cyclobutyl)methyl)amino)-2-(2,6-dioxopiperidin-3-yl)isoindoline-1,3-dione]",–,–,–
> 1000 nM,–,> 1000 nM,–,"O=C1CCC(N2C(=O)c3ccc(NC[C@H]4C[C@H](n5nc(C6CC6)c6c(N7CCNCC7)cccc65)C4)cc3C2=O)C(=O)N1 (stereo partly drawn) [GS-757, 5-(((Trans-3-(3-cyclopropyl-4-(piperazin-1-yl)-1H-indazol-1-yl)cyclobutyl)methyl)amino)-2-(2,6-dioxopiperidin-3-yl)isoindoline-1,3-dione]",–,–,–
10 to 100 nM,10 to 100 nM,10 to 100 nM,< 10 nM,O=C1CCC(N2C(=O)c3ccc(NC[C@H]4C[C@H](n5cc(-c6ncccc6[C@H]6C[C@H](O)C6)c(C6CC6)n5)C4)cc3C2=O)C(=O)N1 (stereo partly drawn) [GS-772],–,–,–
100 to 1000 nM,10 to 100 nM,100 to 1000 nM,10 to 100 nM,"Cc1nc(-c2cn(C3CC(F)(CNc4ccc5c(c4)C(=O)N(C4CCC(=O)NC4=O)C5=O)C3)nc2C2CC2)ccc1F (stereo not drawn) [GS-723, 5-(((Trans-3-(3-cyclopropyl-4-(5-fluoro-6-methylpyridin-2-yl)-1H-pyrazol-1-yl)-1-fluorocyclobutyl)methyl)amino)-2-(2,6-dioxopiperidin-3-yl)isoindoline-1,3-dione]",–,–,–
100 to 1000 nM,10 to 100 nM,> 1000 nM,100 to 1000 nM,"Cc1cccc(-c2cn(C3CC4(CC(C(=O)NCc5ccc6c(c5)C(=O)N(C5CCC(=O)NC5=O)C6=O)C4)C3)nc2C2CC2)n1 (stereo not drawn) [GS-774, 6-(3-Cyclopropyl-4-(6-methylpyridin-2-yl)-1H-pyrazol-1-yl)-N-((2-(2,6-dioxopiperidin-3-yl)-1,3-dioxoisoindolin-5-yl)methyl)spiro[3.3]heptane-2-carboxamide]",–,–,–
10 to 100 nM,10 to 100 nM,100 to 1000 nM,10 to 100 nM,"O=C1CCC(N2C(=O)c3ccc(NC[C@H]4C[C@H](n5cc(Nc6cccnc6)c(C6CC6)n5)C4)cc3C2=O)C(=O)N1 (stereo partly drawn) [GS-670, 5-(((Trans-3-(3-cyclopropyl-4-(pyridin-3-ylamino)-1H-pyrazol-1-yl)cyclobutyl)methyl)amino)-2-(2,6-dioxopiperidin-3-yl)isoindoline-1,3-dione]",–,–,–
10 to 100 nM,< 10 nM,10 to 100 nM,10 to 100 nM,"O=C1CCC(N2C(=O)c3ccc(NC[C@H]4C[C@H](n5nc(C6CC6)cc5Cc5ccccc5)C4)cc3C2=O)C(=O)N1 (stereo partly drawn) [GS-741, 5-((Trans-3-(5-benzyl-3-cyclopropyl-1H-pyrazol-1-yl)cyclobutyl)methylamino)-2-(2,6-dioxopiperidin-3-yl)isoindoline-1,3-dione]",–,–,–
10 to 100 nM,< 10 nM,100 to 1000 nM,10 to 100 nM,"COc1cnc2c(c1)c(C1CC1)nn2[C@H]1C[C@H](CNc2ccc3c(c2)C(=O)N(C2CCC(=O)NC2=O)C3=O)C1 (stereo partly drawn) [GS-682, 5-(((Trans-3-(3-cyclopropyl-5-methoxy-1H-pyrazolo[3,4-b]pyridin-1-yl)cyclobutyl)methyl)amino)-2-(2,6-dioxopiperidin-3-yl)isoindoline-1,3-dione]",–,–,–
> 1000 nM,100 to 1000 nM,> 1000 nM,100 to 1000 nM,"Cc1cccc2cn([C@H]3C[C@H](CNc4ccc5c(c4)C(=O)N(C4CCC(=O)NC4=O)C5=O)C3)nc12 (stereo partly drawn) [GS-694, 2-(2,6-Dioxopiperidin-3-yl)-5-(((trans-3-(7-methyl-2H-indazol-2-yl)cyclobutyl)methyl)amino)isoindoline-1,3-dione]",–,–,–
